Positions of bridges follow the written chain, without caps; N, C: chain ends. Residues, ends and D or L forms follow the SMILES beside them.
Columns and labels:
bovine IgG = experiment: Mini-chromatography column binding (dynamic conditions); settings: 250 μg target, 170 cm/hr
Description: (§1) Thus, 250 μg of target (hIgG1, hIgG2, hIgG3, hIgG4, goat IgG and bovine IgG) at 0.250 mg/ml in PBST, pH 7.2 or TBST, pH 7.3 was loaded onto a 350 μl column (3×50 mm) run at 0.200 ml/min. flowrate (170 cm/hr). Flowthrough, elution and cleaning fractions were collected and assayed for total protein recovery by size-exclusion HPLC. Percentage mass balance was also determined to be 90-100% on average.

goat IgG = experiment: as above; settings: 250 μg target, 170 cm/hr
Description: as §1

IgG4 [1] = biological target: T1, IgG4 (Homo sapiens, UniProt P01861); experiment: Column capture of human IgG4 from goat IgG in buffer; type: binding; parameters: all human subtypes derived from myeloma patients; purchased Calbiochem 400126; host or cells: myeloma patients; settings: SEC-HPLC; load 99.5% monomer
Description: 0.250 mg of hIgG4 (99.5% monomer) was added to 1.0 mg of goat IgG in a total volume of 1.0 ml of PBST, pH 7.2. Thus, 1.0 ml was loaded onto a 350 ul mini-column as described above. The column was washed to baseline with PBST, pH 7.2 and the flowthrough fraction collected. Bound IgG was eluted with 0.1M sodium bicarbonate buffer, pH 9.0 and the column cleaned with 0.1M CAPS, pH 11.5. The eluted and clean fractions were quickly neutralized to pH˜7.2 and assayed for mass recovery by SEC-HPLC. […] The column load, flowthrough, elution and cleaning fractions were further analyzed by electrophoresis (SDS-PAGE), Coomassie stain.

IgG4 [2] = biological target: T1, IgG4; experiment: Competition between synthetic peptides and Protein A for Fc binding; parameters: the individual human plasma IgG isoforms: IgG1, IgG2, IgG3, or IgG4; purchased Calbiochem; host or cells: human plasma; key: NB: no detected binding.; ?: partial decrease in anisotropy with added competitor; settings: 5 mg/ml protein A
Description: Cross-competition studies between peptides were performed using 20 nM fluorescein-labeled peptide and 1-2 μM IgG1, IgG2, IgG3, or IgG4 in the presence and absence of a maximum of 100 μM unlabeled peptide or 5 mg/ml protein A.
This is consistent with the fact that Protein A is known not to bind human IgG3.

human Fc fragments = experiment: Mini-chromatography column capture from PBST; type: binding; settings: 350 μl column, Fc spiked into PBST, pH 7.2
Description: (§2) For these experiments, 350 μl columns (3×50 mm) were packed with each media. The columns were tested with human Fc fragments or human IgG1 (Calbiochem, 401104 and 400120 respectively) spiked into PBST, pH 7.2 at a concentration of 0.5 g/l. 65 μg of Fc was loaded onto each column. After loading, the columns were washed with PBST, pH 7.2, eluted with 30 mM H3PO4, 150 mM NaCl, pH 2.0 and cleaned with 0.1M CAPS, pH 11.5 buffer (3-[Cyclohexylamino]-1-propane-sulfonic acid). Fractions collected were immediately neutralized to pH ˜7.2 with 2.0 M Tris, pH 8.0. All column operations were conducted at 200 μl/min (170 cm/hr).

hIgG1 = biological target: T2, hIgG1 (Homo sapiens, UniProt P01857); experiment: Mini-chromatography column binding (dynamic conditions); settings: 350 μl column, human IgG1 spiked into PBST, pH 7.2
T2 construct: purchased Calbiochem 400120; host or cells: human myeloma patients
Description: as §1, §2

human IgG = experiment: DX253 column cycling with IgG spiked cell culture media
Description: DX253 peptide was immobilized onto NHS-activated 4 Fast Flow to a ligand density of 2.9 μmole/ml as determined by quantitative amino acid analysis. This affinity resin was packed into a 4.6 mm×6 cm (internal diam.×length, 1.0 ml bed volume) PEEK column (Isolation Technologies, Inc., 5050IP-08046-006-20).
Human IgG was spiked into fresh cell culture media (DMEM) containing 10% fetal bovine serum (ultra low) to 0.5 mg/ml. 2 ml (1.0 mg IgG) was loaded onto the column which was pre-equilibrated with PBS, pH 7.2. Loading was performed at 0.21 ml/minute (75 cm/hour) and all subsequent steps (wash, elution and cleaning) were performed at 0.42 ml/minute (150 cm/hour). Unbound sample was washed to baseline with PBS, pH 7.2, followed by elution with 0.1M citrate, pH 3.0, wash with PBS, pH 7.2, cleaning with 3M guanidine-HCl, 20 mM phosphate, pH 7.2 and re-equilibration back into PBS, pH 7.2. A total of 19 series of 5 cycles each (95 cycles total) were run. […] This procedure was used for cycles 1-25, 27-65, 67-85, and 87-95.

**Q.** “Prot. A: immobilized recombinant Protein A (RepliGen Corp., product no. IPA-400), positive control [reference compound]” was tested. Which “Binding efficiency, bovine IgG” value (bovine IgG) did it give?
**A.** high

**Q.** What about the “Binding efficiency, goat IgG” value (goat IgG) of the same compound?
**A.** moderate

**Q.** `CC[C@H](C)[C@@H]1NC(=O)[C@H](CC(C)C)NC(=O)[C@H](CCC(=O)O)NC(=O)CNC(=O)[C@H](Cc2c[nH]c3ccccc23)NC(=O)[C@H]([C@@H](C)O)NC(=O)[C@H]([C@@H](C)O)NC(=O)[C@H](Cc2ccc(O)cc2)NC(=O)[C@H](C(C)C)NC(=O)[C@@H](NC(=O)[C@H](CCSC)NC(=O)[C@H](Cc2c[nH]cn2)NC(=O)[C@H](CC(=O)O)NC(=O)[C@H](CC(=O)O)NC(=O)CNC(C)=O)CSSC[C@@H](C(=O)N[C@@H](CC(=O)O)C(=O)N[C@@H](CC(N)=O)C(=O)N[C@@H](Cc2c[nH]cn2)C(=O)N[C@@H](CCC(=O)O)C(=O)N2CCC[C@H]2C(=O)NCC(=O)N2CCC[C@H]2C(=O)N[C@@H](CCC(=O)O)C(=O)NCC(=O)NCC(=O)NCC(=O)N[C@@H](CCCCN)C(N)=O)NC(=O)[C@H](Cc2c[nH]c3ccccc23)NC1=O` [DX249] (Ac-GDDHMCVYTTWGELIWCDNHEPGPEGGGK-NH2; disulfide 6-17) was tested. Which “Monomer in the eluted fraction” value (IgG4 [1]) did it give?
**A.** 99.5%

**Q.** What does the source list for `CC(=O)NCC(=O)N[C@@H](CC(=O)O)C(=O)N[C@@H](CC(=O)O)C(=O)N[C@@H](CC(=O)O)C(=O)N[C@@H](Cc1c[nH]cn1)C(=O)N[C@H]1CSSC[C@@H](C(=O)N2CCC[C@H]2C(=O)N[C@@H](Cc2c[nH]cn2)C(=O)NCC(=O)N[C@@H](CCC(=O)O)C(=O)N2CCC[C@H]2C(=O)NCC(=O)N2CCC[C@H]2C(=O)N[C@@H](CCC(=O)O)C(=O)NCC(=O)NCC(=O)NCC(=O)N[C@@H](CCCCN)C(N)=O)NC(=O)[C@H](CCC(=O)O)NC(=O)[C@H](CO)NC(=O)[C@H](CC(N)=O)NC(=O)[C@H](Cc2ccccc2)NC(=O)[C@H](Cc2c[nH]c3ccccc23)NC(=O)[C@H](CCC(=O)O)NC(=O)[C@H](CCCNC(=N)N)NC(=O)[C@H](Cc2ccccc2)NC(=O)[C@H](Cc2c[nH]c3ccccc23)NC(=O)[C@H](Cc2ccc(O)cc2)NC1=O` [DX252] (Ac-GDDDHCYWFREWFNSECPHGEPGPEGGGK-NH2; disulfide 6-17 (inferred))?
**A.** Competition between labeled peptide and Protein A, IgG4 (IgG4 [2]): NB; Capture efficiency, Fc (human Fc fragments): 70%; Capture efficiency, IgG1 (hIgG1): 80%

**Q.** For “Ac-GDRRACSRDWSGALVWCAGHEPGPEGGGK-NH2 (not fully specified (bridges); printed as Ac-GDRRACSRDWSGALVWCAGHEPGPEGGGK-NH2; cysteine pairing not given here) [DX253]”, which “% Relative Performance (elution peak area vs cycle 1)” value (shortened to “% Relative Performance”) (human IgG; Cycling Run No. 1, cycling run 1) is on record?
**A.** 100%

**Q.** What about the “% Relative Performance” value (human IgG; Cycling Run No. 10, cycling run 10) of the same compound?
**A.** 97.6%

**Q.** And the “% Relative Performance” value (human IgG; Cycling Run No. 20, cycling run 20)?
**A.** 97.9%

**Q.** And the “% Relative Performance” value (human IgG; Cycling Run No. 30, cycling run 30)?
**A.** 102.3%

**Q.** And the “% Relative Performance” value (human IgG; Cycling Run No. 40, cycling run 40)?
**A.** 103.1%

**Q.** What about the “% Relative Performance” value (human IgG; Cycling Run No. 51, cycling run 51) of the same compound?
**A.** 102.0%

**Q.** What about the “% Relative Performance” value (human IgG; Cycling Run No. 60, cycling run 60) of the same compound?
**A.** 103.1%

**Q.** What about the “% Relative Performance” value (human IgG; Cycling Run No. 70, cycling run 70) of the same compound?
**A.** 102.6%

**Q.** What about the “% Relative Performance” value (human IgG; Cycling Run No. 81, cycling run 81) of the same compound?
**A.** 102.1%

**Q.** What about the “% Relative Performance” value (human IgG; Cycling Run No. 90, cycling run 90) of the same compound?
**A.** 101.8%
